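Cells were grown in 96-well plates and exposed to each compound for 48 hours at five concentrations; endpoints were interpolated linearly between bracketing concentrations, or set to the highest concentration if not reached. At the TGI there is no net growth.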
Tests used:
Assay in all cases: NCI-60 cell line screen, 48 h
UACC-62 melanoma = test system: UACC-62 melanoma
NCI-H226 lung = test system: NCI-H226 lung
NCI/ADR-RES ovarian = test system: NCI/ADR-RES ovarian
SK-MEL-2 melanoma = test system: SK-MEL-2 melanoma
K-562 leukemia = test system: K-562 leukemia
MALME-3M melanoma = test system: MALME-3M melanoma
SK-OV-3 ovarian = test system: SK-OV-3 ovarian
SK-MEL-28 melanoma = test system: SK-MEL-28 melanoma
HOP-62 NSCLC = test system: HOP-62 NSCLC
MDA-MB-435 = test system: MDA-MB-435
SNB-19 CNS = test system: SNB-19 CNS
LOX IMVI melanoma = test system: LOX IMVI melanoma
SN12C renal = test system: SN12C renal
ACHN renal = test system: ACHN renal
786-0 renal = test system: 786-0 renal
COLO 205 colon = test system: COLO 205 colon
UO-31 renal = test system: UO-31 renal
CAKI-1 renal = test system: CAKI-1 renal
SW-620 colon = test system: SW-620 colon
SNB-75 CNS = test system: SNB-75 CNS
SF-295 CNS = test system: SF-295 CNS
PC-3 prostate = test system: PC-3 prostate
KM12 colon = test system: KM12 colon
UACC-257 melanoma = test system: UACC-257 melanoma
HT29 colon = test system: HT29 colon
EKVX NSCLC = test system: EKVX NSCLC
M14 melanoma = test system: M14 melanoma
HCT-116 colon = test system: HCT-116 colon
HCC-2998 colon = test system: HCC-2998 colon
A549 NSCLC = test system: A549 NSCLC
RXF 393 renal = test system: RXF 393 renal
OVCAR-4 ovarian = test system: OVCAR-4 ovarian
SF-268 CNS = test system: SF-268 CNS
U251 CNS = test system: U251 CNS
MOLT-4 leukemia = test system: MOLT-4 leukemia
OVCAR-5 ovarian = test system: OVCAR-5 ovarian
SF-539 CNS = test system: SF-539 CNS
T-47D breast = test system: T-47D breast
MCF7 breast = test system: MCF7 breast
NCI-H522 lung = test system: NCI-H522 lung
TK-10 renal = test system: TK-10 renal
OVCAR-3 ovarian = test system: OVCAR-3 ovarian
MDA-MB-231 breast = test system: MDA-MB-231 breast
HCT-15 colon = test system: HCT-15 colon
A498 renal = test system: A498 renal
NCI-H460 lung = test system: NCI-H460 lung
MDA-N = test system: MDA-N
SK-MEL-5 melanoma = test system: SK-MEL-5 melanoma
DU-145 prostate = test system: DU-145 prostate
BT-549 breast = test system: BT-549 breast
OVCAR-8 ovarian = test system: OVCAR-8 ovarian
HOP-92 NSCLC = test system: HOP-92 NSCLC
NCI-H23 lung = test system: NCI-H23 lung
HL-60(TB) leukemia = test system: HL-60(TB) leukemia
RPMI-8226 leukemia = test system: RPMI-8226 leukemia
IGROV1 ovarian = test system: IGROV1 ovarian

SMILES: CCOC(=O)CCC(NC(=O)c1ccc(NCc2ccc3nc(-c4ccccc4)c(Cl)nc3c2)c2ccccc12)C(=O)OCC (stereo unspecified)
- TGI (UACC-62 melanoma): > 100 µM
- TGI (NCI-H226 lung): > 100 µM
- TGI (NCI/ADR-RES ovarian): > 100 µM
- TGI (SK-MEL-2 melanoma): > 100 µM
- TGI (K-562 leukemia): > 100 µM
- TGI (MALME-3M melanoma): > 100 µM
- TGI (SK-OV-3 ovarian): > 100 µM
- TGI (SK-MEL-28 melanoma): > 100 µM
- TGI (HOP-62 NSCLC): > 100 µM
- TGI (MDA-MB-435): > 100 µM
- TGI (SNB-19 CNS): > 100 µM
- TGI (LOX IMVI melanoma): > 100 µM
- TGI (SN12C renal): > 100 µM
- TGI (ACHN renal): > 100 µM
- TGI (786-0 renal): > 100 µM
- TGI (COLO 205 colon): > 100 µM
- TGI (UO-31 renal): > 100 µM
- TGI (CAKI-1 renal): > 100 µM
- TGI (SW-620 colon): > 100 µM
- TGI (SNB-75 CNS): > 100 µM
- TGI (SF-295 CNS): > 100 µM
- TGI (PC-3 prostate): > 100 µM
- TGI (KM12 colon): > 100 µM
- TGI (UACC-257 melanoma): 61.5 µM
- TGI (HT29 colon): > 100 µM
- TGI (EKVX NSCLC): > 100 µM
- TGI (M14 melanoma): > 100 µM
- TGI (HCT-116 colon): > 100 µM
- TGI (HCC-2998 colon): > 100 µM
- TGI (A549 NSCLC): > 100 µM
- TGI (RXF 393 renal): > 100 µM
- TGI (OVCAR-4 ovarian): > 100 µM
- TGI (SF-268 CNS): > 100 µM
- TGI (U251 CNS): > 100 µM
- TGI (MOLT-4 leukemia): 27.9 µM
- TGI (OVCAR-5 ovarian): > 100 µM
- TGI (SF-539 CNS): > 100 µM
- TGI (T-47D breast): > 100 µM
- TGI (MCF7 breast): > 100 µM
- TGI (NCI-H522 lung): > 100 µM
- TGI (TK-10 renal): > 100 µM
- TGI (OVCAR-3 ovarian): > 100 µM
- TGI (MDA-MB-231 breast): > 100 µM
- TGI (HCT-15 colon): > 100 µM
- TGI (A498 renal): > 100 µM
- TGI (NCI-H460 lung): > 100 µM
- TGI (MDA-N): > 100 µM
- TGI (SK-MEL-5 melanoma): > 100 µM
- TGI (DU-145 prostate): > 100 µM
- TGI (BT-549 breast): > 100 µM
- TGI (OVCAR-8 ovarian): > 100 µM
- TGI (HOP-92 NSCLC): > 100 µM
- TGI (NCI-H23 lung): > 100 µM

SMILES: O=C(NNCc1ccccc1O)c1ccccc1O
- TGI (UACC-62 melanoma): 55.9 µM
- TGI (NCI-H226 lung): > 100 µM
- TGI (NCI/ADR-RES ovarian): 40.4 µM
- TGI (SK-MEL-2 melanoma): 25.8 µM
- TGI (K-562 leukemia): > 100 µM
- TGI (MALME-3M melanoma): > 100 µM
- TGI (SK-OV-3 ovarian): 68.6 µM
- TGI (SK-MEL-28 melanoma): > 100 µM
- TGI (HOP-62 NSCLC): > 100 µM
- TGI (MDA-MB-435): > 100 µM
- TGI (SNB-19 CNS): > 100 µM
- TGI (HL-60(TB) leukemia): 4.17 µM
- TGI (LOX IMVI melanoma): > 100 µM
- TGI (SN12C renal): > 100 µM
- TGI (ACHN renal): > 100 µM
- TGI (786-0 renal): > 100 µM
- TGI (COLO 205 colon): > 100 µM
- TGI (RPMI-8226 leukemia): > 100 µM
- TGI (UO-31 renal): 16.5 µM
- TGI (CAKI-1 renal): > 100 µM
- TGI (SW-620 colon): > 100 µM
- TGI (SNB-75 CNS): > 100 µM
- TGI (SF-295 CNS): 17.4 µM
- TGI (PC-3 prostate): > 100 µM
- TGI (KM12 colon): > 100 µM
- TGI (UACC-257 melanoma): > 100 µM
- TGI (HT29 colon): > 100 µM
- TGI (EKVX NSCLC): > 100 µM
- TGI (M14 melanoma): 24.2 µM
- TGI (HCT-116 colon): > 100 µM
- TGI (HCC-2998 colon): 45.1 µM
- TGI (IGROV1 ovarian): > 100 µM
- TGI (A549 NSCLC): > 100 µM
- TGI (RXF 393 renal): > 100 µM
- TGI (OVCAR-4 ovarian): > 100 µM
- TGI (U251 CNS): > 100 µM
- TGI (MOLT-4 leukemia): > 100 µM
- TGI (OVCAR-5 ovarian): 96.3 µM
- TGI (SF-539 CNS): > 100 µM
- TGI (T-47D breast): 35 µM
- TGI (MCF7 breast): 80.3 µM
- TGI (NCI-H522 lung): > 100 µM
- TGI (TK-10 renal): > 100 µM
- TGI (OVCAR-3 ovarian): 6.29 µM
- TGI (MDA-MB-231 breast): > 100 µM
- TGI (HCT-15 colon): > 100 µM
- TGI (A498 renal): > 100 µM
- TGI (MDA-N): > 100 µM
- TGI (SK-MEL-5 melanoma): 25.8 µM
- TGI (DU-145 prostate): 43.4 µM
- TGI (OVCAR-8 ovarian): > 100 µM
- TGI (HOP-92 NSCLC): > 100 µM
- TGI (NCI-H23 lung): > 100 µM
